11 compounds from patent US20050203151A1, “Novel compounds, compositions and uses thereof for treatment of metabolic disorders and related conditions” (Kalypsys, Inc., priority 2003, published 2005) can be followed below.

Assay type in all cases: cell-based
Assay [1] addresses T1, PPAR-delta (Homo sapiens, UniProt Q03181).
T1 construct: expressed in transfected cells; host or cells: CV-1 cells
T1 sequence (Q03181 211-439 limits assumed): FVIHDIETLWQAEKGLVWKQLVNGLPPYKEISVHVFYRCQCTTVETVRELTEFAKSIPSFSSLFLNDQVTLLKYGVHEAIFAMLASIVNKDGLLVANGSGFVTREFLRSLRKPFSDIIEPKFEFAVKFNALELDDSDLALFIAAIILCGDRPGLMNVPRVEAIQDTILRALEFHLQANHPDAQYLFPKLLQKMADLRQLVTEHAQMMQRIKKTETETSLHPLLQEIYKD
Description: human PPAR-GAL4 chimera luciferase reporter assay in CV-1 cells, PPAR-delta. The method, then:
(§1) The compounds were evaluated in a cell-based assay to determine their human PPAR activity. The plasmids for human PPAR-GAL4 chimeras were prepared by fusing amplified cDNAs encoding the LBDs of PPARs to the C-terminal end of the yeast GAL4 DNA binding domain. CV-1 cells were grown and transiently transected with PerFectin (GTS, San Diego, Calif.) according to the manufacturer's protocol along with a luciferase reporter. Eight hours after transfection, 50 μl of cells were replated into 384 well plates ([…]). Sixteen hours after replating, cells were treated with either compounds or 1% DMSO for 24 hours. Luciferase activity was then assayed with Britelite (Perkin Elmer) following the manufacturer's protocol and measured with either the Perkin Elmer Viewlux or Molecular Devices Acquest.
(§2) Compounds may be screened for functional potency in transient transfection assays in CV-1 cells for their ability to activate the PPAR subtypes (transactivation assay). A previously established chimeric receptor system was utilized to allow comparison of the relative transcriptional activity of the receptor subtypes on the same synthetic response element and to prevent endogenous receptor activation from complicating the interpretation of results. See, for example, Lehmann, J. M.; Moore, L. B.; Smith-Oliver, T. A; Wilkinson, W. O.; Willson, T. M.; Kliewer, S. A., An antidiabetic thiazolidinedione is a high affinity ligand for peroxisome proliferator-activated receptory γ (PPARγ), J. Biol. Chem., 1995, 270, 12953-6. The ligand binding domains for murine and human PPAR-alpha, PPAR-gamma, and PPAR-delta are each fused to the yeast transcription factor GAL4 DNA binding domain. CV-1 cells were transiently transfected with expression vectors for the respective PPAR chimera along with a reporter construct containing four or five copies of the GAL4 DNA binding site driving expression of luciferase. After 8-16 h, the cells are replated into multi-well assay plates and the media is exchanged to phenol-red free DME medium supplemented with 5% delipidated calf serum. 4 hours after replating, cells were treated with either compounds or 1% DMSO for 20-24 hours. Luciferase activity was then assayed with Britelite (Perkin Elmer) following the manufacturer's protocol and measured with either the Perkin Elmer Viewlux or Molecular Devices Acquest (see, for example, Kliewer, S. A., et. al. Cell 1995, 83, 813-819). Rosiglitazone is used as a positive control in the hPPAR-γ assay. Wy-14643 and GW7647 is used as a positive control in the hPPAR-α assay. GW501516 is used as the positive control in the hPPAR-δ assay.
(In a reporter assay the amount or activity of a reporter protein is the signal.)

In assay [2] the target is T2, PPAR-gamma (Homo sapiens, UniProt P37231).
T2 construct: expressed in transfected cells; host or cells: CV-1 cells
T2 sequence (P37231 238-503 limits assumed): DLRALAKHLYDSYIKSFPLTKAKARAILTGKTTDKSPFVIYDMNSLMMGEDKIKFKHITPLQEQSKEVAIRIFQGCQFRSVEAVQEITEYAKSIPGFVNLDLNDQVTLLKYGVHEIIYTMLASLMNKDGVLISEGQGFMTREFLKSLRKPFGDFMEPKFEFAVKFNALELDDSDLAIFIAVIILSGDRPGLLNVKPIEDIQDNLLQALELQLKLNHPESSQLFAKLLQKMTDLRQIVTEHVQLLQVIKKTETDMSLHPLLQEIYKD
As to the kind of experiment: human PPAR-GAL4 chimera luciferase reporter assay in CV-1 cells, PPAR-gamma. Here is the method: as §1, §2

Assay [3] concerns the target T3, PPAR-alpha (Homo sapiens, UniProt Q07869).
T3 construct: expressed in transfected cells; host or cells: CV-1 cells
T3 sequence (Q07869 239-466 limits assumed): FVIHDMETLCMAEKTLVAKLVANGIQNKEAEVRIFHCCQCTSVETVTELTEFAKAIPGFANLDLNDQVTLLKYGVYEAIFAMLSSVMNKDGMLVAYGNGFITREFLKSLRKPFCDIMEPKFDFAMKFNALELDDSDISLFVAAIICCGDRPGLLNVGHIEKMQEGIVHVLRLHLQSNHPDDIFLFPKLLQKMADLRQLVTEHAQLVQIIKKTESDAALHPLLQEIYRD
Description: human PPAR-GAL4 chimera luciferase reporter assay in CV-1 cells, PPAR-alpha. Here is the method: as §1, §2

Where [4] appears, read: Table 2, Examples 1-10, read-out: PPAR δ EC50.
The mark [5] stands for this setting: Table 2, Examples 1-10, read-out: PPAR γ EC50.
Where [6] appears, read: Table 2, Examples 1-10, read-out: PPAR α EC50.
Setting [7] is: Table 3, Examples 11-25, read-out: PPAR delta (EC50).
Setting [8] is: Table 3, Examples 11-25, read-out: PPAR gamma (EC50).
Setting [9] is: Table 3, Examples 11-25, read-out: PPAR alpha (EC50).

Like-named read-outs stand apart in the source and are kept apart here.

For `Cc1nc(-c2ccc(C(F)(F)F)cc2)sc1Cn1ccc2cc(C(=O)O)ccc21` [Example 10, 1-[4-methyl-2-(4-trifluoromethyl-phenyl)-thiazol-5-ylmethyl]-1H-indole-5-carboxylic acid], the EC50 in assay [1] (setting [4]), in assay [2] (setting [5]) and in assay [3] (setting [6]) was more than 10 µM throughout.

As for `Cc1nc(-c2ccc(C(F)(F)F)cc2)sc1CSc1cccc(CC(=O)O)c1` [Example 2, {3-[4-methyl-2-(4-trifluoromethyl-phenyl)-thiazol-5-ylmethylsulfanyl]-phenyl}-acetic acid], the EC50 in assay [1] (setting [4]) is less than 1 µM; in assay [2] (setting [5]), 1 to 10 µM; in assay [3] (setting [6]) it was less than 1 µM.

`Cc1nc(-c2ccc(C(F)(F)F)cc2)sc1Cn1ccc2cc(OC(C)(C)C(=O)O)ccc21` [Example 15, 2-Methyl-2-{1-[4-methyl-2-(4-trifluoromethyl-phenyl)-thiazol-5-ylmethyl]-1H-indol-5-yloxy}-propionic acid]: the EC50 in assay [1] (setting [7]) is less than 5 µM; in assay [2] (setting [8]) it was 5 to 100 µM; in assay [3] (setting [9]) it was less than 5 µM.

Regarding `Cc1nc(-c2ccc(C(F)(F)F)cc2)sc1Cn1ccc2c(OCC(=O)O)cccc21` [Example 11, {1-[4-Methyl-2-(4-trifluoromethyl-phenyl)-thiazol-5-ylmethyl]-1H-indol-4-yloxy}acetic acid], the EC50 in assay [1] (setting [7]), in assay [2] (setting [8]) and in assay [3] (setting [9]) was more than 100 µM in each case.

Consider `Cc1nc(-c2ccc(C(F)(F)F)cc2)sc1CCn1ccc2cc(OCC(=O)O)ccc21` [Example 18, (1-{2-[4-Methyl-2-(4-trifluoromethyl-phenyl)-thiazol-5-yl]-ethyl}-1H-indol-5-yloxy)-acetic acid], for which the EC50 in assay [1] (setting [7]), in assay [2] (setting [8]) and in assay [3] (setting [9]) was 5 to 100 µM each time.

For `Cc1nc(-c2ccc(C(F)(F)F)cc2)sc1Cn1ccc2cccc(OCC(=O)O)c21` [Example 14, {1-[4-Methyl-2-(4-trifluoromethyl-phenyl)-thiazol-5-ylmethyl]-1H-indol-7-yloxy}-acetic acid], the EC50 in assay [1] (setting [7]) was 5 to 100 µM; in assay [2] (setting [8]), 5 to 100 µM; in assay [3] (setting [9]) it was more than 100 µM.

`Cc1nc(-c2ccc(C(F)(F)F)cc2)sc1COc1cccc(CC(=O)O)c1` [Example 1, {3-[4-methyl-2-(4-trifluoromethyl-phenyl)-thiazol-5-ylmethoxy]-phenyl}-acetic acid]: the EC50 in assay [1] (setting [4]) is less than 1 µM; in assay [2] (setting [5]), 1 to 10 µM; in assay [3] (setting [6]), less than 1 µM.

For the compound `Cc1nc(-c2ccc(C(F)(F)F)cc2)sc1CCn1ccc2cc(OC(C)(C)C(=O)O)ccc21` [Example 21, 2-Methyl-2-(1-{2-[4-methyl-2-(4-trifluoromethyl-phenyl)-thiazol-5-yl]-ethyl}-1H-indol-5-yloxy)-propionic acid], the EC50 in assay [1] (setting [7]), in assay [2] (setting [8]) and in assay [3] (setting [9]) was 5 to 100 µM each time.

Consider `Cc1nc(-c2ccc(C(F)(F)F)cc2)sc1COc1cccc2ccn(CC(=O)O)c12` [Example 6, {7-[4-methyl-2-(4-trifluoromethyl-phenyl)-thiazol-5-ylmethoxy]-indol-1-yl}-acetic acid], for which the EC50 in assay [1] (setting [4]), in assay [2] (setting [5]) and in assay [3] (setting [6]) was more than 10 µM each time.

In the case of `Cc1nc(-c2ccc(C(F)(F)F)cc2)sc1Cn1ccc2ccc(OCC(=O)O)cc21` [Example 13, {1-[4-Methyl-2-(4-trifluoromethyl-phenyl)-thiazol-5-ylmethyl]-1H-indol-6-yloxy}-acetic acid], the EC50 in assay [1] (setting [7]) was less than 5 µM; in assay [2] (setting [8]), 5 to 100 µM; in assay [3] (setting [9]), 5 to 100 µM.

As to `Cc1nc(-c2ccc(C(F)(F)F)cc2)sc1CCN1CCc2ccc(OC(C)(C)C(=O)O)cc21` [Example 20, 2-Methyl-2-(1-{2-[4-methyl-2-(4-trifluoromethyl-phenyl)-thiazol-5-yl]-ethyl}-2,3-dihydro-1H-indol-6-yloxy)-propionic acid], the EC50 in assay [1] (setting [7]) was 5 to 100 µM; in assay [2] (setting [8]), 5 to 100 µM; in assay [3] (setting [9]), less than 5 µM.
